The values below are quoted from earlier work in patent publication US10925864B2, “Stable liquid injectable solution of midazolam and pentazocine” (NEON LABORATORIES LIMITED, priority 2015, dated 2021).

Counter-ions that a name gives are not always drawn. Like-named read-outs stand apart in the source and are kept apart here.

The conditions of series [1]: after IM administration in adults.
For series [2] the following is noted: water / aqueous solutions.

Take `Cc1ncc2n1-c1ccc(Cl)cc1C(c1ccccc1F)=NC2` [Midazolam]: the “Onset time of sedative effects” value in series [1] is 15 min. In addition, the solubility entry in series [2] is “insoluble in water”.
On to `Cc1ncc2n1-c1ccc(Cl)cc1C(c1ccccc1F)=NC2` [hydrochloride salt of midazolam, Midazolam hydrochloride], for which, in series [2] (hydrochloride), the solubility result is recorded as “soluble in aqueous solutions”.
